Experimental data: PubChem BioAssay (NCI)
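48-hour exposure; five concentrations; linearly interpolated endpoints. At the TGI there is no net growth.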

Columns and labels:
Experiment in all cases: NCI anticancer screen, dose series, 48 h
CCRF-CEM leukemia = tested on: CCRF-CEM leukemia
OVCAR-8 ovarian = tested on: OVCAR-8 ovarian
HCT-15 colon = tested on: HCT-15 colon
HCC-2998 colon = tested on: HCC-2998 colon
KM20L2 colon = tested on: KM20L2 colon
SK-MEL-28 melanoma = tested on: SK-MEL-28 melanoma
COLO 205 colon = tested on: COLO 205 colon
M14 melanoma = tested on: M14 melanoma
HOP-62 NSCLC = tested on: HOP-62 NSCLC
SK-MEL-2 melanoma = tested on: SK-MEL-2 melanoma
UACC-62 melanoma = tested on: UACC-62 melanoma
SW-620 colon = tested on: SW-620 colon
M19-MEL melanoma = tested on: M19-MEL melanoma
XF 498 CNS = tested on: XF 498 CNS
UO-31 renal = tested on: UO-31 renal
KM12 colon = tested on: KM12 colon
SF-268 CNS = tested on: SF-268 CNS
DMS 114 small cell lung = tested on: DMS 114 small cell lung
NCI-H226 lung = tested on: NCI-H226 lung
NCI-H460 lung = tested on: NCI-H460 lung

Measured: TGI

O=c1n(CC2CO2)c2ccccc2n1CC1CS1 (stereo not given)
> 100 µM: all assays above

COc1ccc(Nc2cnc3cc(N)ccc3n2)cc1OC
> 100 µM: all assays above
